Patent publication US6492302B1, “Compositions for the protection of plants against the stress of oxidation” (priority 1998, dated 2002)

Assay: antioxidant properties of lipo-amino acids

Substance: butyryl-cystine
- antioxidant properties: does not possess these properties
